Measurements as given in PMC7509492, “To What Extent Do Fluorophores Bias the Biological Activity of Peptides? A Practical Approach Using Membrane-Active Peptides as Models” (Frontiers in Bioengineering and Biotechnology, 2020).
Like-named read-outs stand apart in the source and are kept apart here. Ends that are not written are not given here. Peptide text beside a SMILES is read from it. * marks the point of attachment. RhodamineB = CCN(CC)c1ccc2c(-c3ccccc3C(=O)*)c3ccc(=[N+](CC)CC)cc-3oc2c1; X1 = CC[N+]1=C(C=CC=C2N(CCCCCC(=O)*)c3ccccc3C2(C)C)C(C)(C)c2ccccc21; 5FAM = O=C1OC2(c3ccc(O)cc3Oc3cc(O)ccc32)c2ccc(C(=O)*)cc21

Columns and labels:
[1] = system: HBEC-5i cells (in vitro BBB model); assay: In vitro BBB translocation across HBEC-5i transwell monolayer; type: in vitro ADME, human; settings: HBEC-5i monolayer on PET transwell 1.0 μm pores, apical to basolateral, 10 μM, 24 h, DMEM:F12 without phenol red, mean ± SD, triplicates of three independent experiments
From the text: HBEC-5i cells were allowed to grow until confluence in a gelatin-coated T-flask. Then, cells were carefully harvested with trypsin-EDTA (Gibco/Thermo Fisher, United States) and seeded 8,000 cells/well to 0.1% gelatin solution coated tissue culture inserts [transparent polyester (PET) membrane with 1.0 μm pores] for 24-well plates (BD Falcon, United States). During 8 days, the medium was changed every 2 days. After 8 days, cells were washed two times with 1× PBS and once with DMEM:F12 medium without phenol red (Gibco/Thermo Fisher, United States). Then, peptides diluted in DMEM:F12 medium without phenol red to a final concentration of 10 μM were added to the apical side of the in vitro BBB model (Figure 1). Experiments were performed on different days using independently grown cell cultures.
FIGURE 1 Scheme of an in vitro BBB transwell membrane system. Human brain endothelial cells (HBEC-5i) are cultured as monolayer on the apical side of a polyester (PET) transwell insert (1.0 μm pore size). Then, 10 μM of peptides are added to the apical side, and the translocation measured as the amount detected on the basolateral side.
The translocation of peptides labeled with different fluorophores was determined by fluorescence emission. After 24 h incubation, samples from the apical and basolateral side were collected and analyzed. Fluorescence was measured using the infinite F200 TECAN plate reader. The percentage (%) of translocation was calculated using the following equation:
(3) Translocation(%)=(Fi-Fcells/Fpeptide-FMedium)×100
Fi is the fluorescence intensity recovered, Fcells is the fluorescence intensity recovered from cells without peptide incubation, Fpeptide is the fluorescence intensity of total peptide initially added to the transwell apical side, and FMedium is the fluorescence intensity of the medium.
The translocation of unlabeled peptides was determined by the calculation of the respective area under the curve (AUC) in the reversed phase HPLC chromatograms. After 24 h incubation, samples from the apical and basolateral side were collected and analyzed by HPLC on a PerkinElmer Series 200 pump coupled to a PerkinElmer Series 200 UV/Vis Detector on a Luca C18 column (4.6 mm × 50 mm, 3 μm, Phenomenex, United States), eluting with linear gradients of HCOOH/MeCN (0.1%, v/v) into HCOOH/H2O (0.1%, v/v) over 15 min at 1 mL/min. UV detection was λ = 220 nm. The percentage (%) of translocation was calculated using the following equation:
(4) Translocation(%)=(AUCi/AUCpeptide)×100
AUCi is the AUC of peptide recovered and AUCpeptide is the AUC of total peptide initially added to the transwell apical side.

[2] = CellTiter-Blue cell viability assay, HBEC-5i; type: cell-based, human; settings: human, HBEC-5i cells, Table 1, peptide 0.01-100 μM, mean ± SD, triplicates of three independent experiments, read-out: Cytotoxicity HBEC-5i cells IC50
Procedure: (§1) Peptides cytotoxicity against both HBEC-5i and MDA-MB-231 cells was determined using CellTiter-Blue® Cell Viability Assay, according to the manufacturer’s instructions. The assay is based on the ability of viable cells to reduce resazurin into resorufin, a highly fluorescent metabolite. […] Therefore, using this methodology is possible to distinguish between metabolic and non-metabolic cells and indirectly determine the cytotoxicity of peptides. Briefly, HBEC-5i and MDA-MB-231 cells were carefully detached from T-flasks, as described previously, and seeded 15,000/100 and 10,000/100 μL, respectively, in 96-well plates (Corning, United States) and incubated for 24 h. After medium removal, cells were washed two times with 1× PBS and 100 μL of previously diluted peptides (range between 0.01 and 100 μM) in either DMEM or DMEM:F12 medium were added to MDA-MB-231 or HBEC-5i cells, respectively. After 24 h incubation, cells were washed two times with 1× PBS, and 20 μL of CellTiter-Blue® Reagent (diluted in 100 μL of medium) was added to each well and incubated for 3 h in a humidified atmosphere of 5% CO2 at 37°C. The fluorescence intensity was measured at λ with an excitation of 560 nm and maximum emission at 590 nm using the infinite F200 TECAN plate reader. Medium and 1% Triton X-100-containing medium were used as positive controls (100% cell viability) and negative controls (0% cell viability), respectively. Cell viability (%) was determined using the following equation:
(§2) (7) CellViability=FP-FNC/FPC-FNC×100
(§3) Fp is the fluorescence intensity of peptide-treated cells, FNC is the fluorescence intensity for negative controls, and FPC is the fluorescence intensity for positive controls.
(§4) Experiments were performed on different days using independently grown cell cultures.
(§5) FIGURE 4 In vitro cytotoxicity unlabeled- and labeled-peptides. (A,B) Cytotoxicity against HBEC-5i cells. (C,D) Cytotoxicity against MDA-MB-231 cells. 1.5 × 10^4 and 1.0 × 10^4 cells of HBEC-5i and MDA-MB-231 cells, respectively, were incubated with various concentrations of peptides (range from 0.01 to 100 μM). The percentage of viability was determined using CellTiter® Blue reagent assay. […] Error bars, S.D.

[3] = system: HBEC-5i cells; assay: CellTiter-Blue cell viability assay, HBEC-5i; type: cell-based, human; settings: peptide 0.01-100 μM, mean ± SD, triplicates of three independent experiments; for Cytotoxicity HBEC-5i cells IC10: Table 1, concentration causing 10% cell death; for Cytotoxicity HBEC-5i cells IC10 / Cytotoxicity HBEC-5i cells IC90: 24 h; for IC50: Table 1, 24 h, read-out: Cytotoxicity HBEC-5i cells IC50; for Cytotoxicity HBEC-5i cells IC90: Table 1, concentration causing 90% cell death
Procedure: as §1, §2, §3, §4, §5

[4] = system: human RBCs; assay: Hemolytic activity on human red blood cells; settings: 37°C; for Hemolytic activity HC10 / Hemolytic activity HC50 / Hemolytic activity HC90: Table 1, human RBCs in 1x PBS pH 7.4, 24 h, peptide 0.01-100 μM, mean ± SD, triplicates of three independent experiments; for Hemolytic activity HC10: concentration causing 10% hemolysis, hemoglobin absorbance 570 nm; for Hemolytic activity HC50: concentration causing 50% hemolysis; for Hemolytic activity HC50 / Hemolytic activity HC90: absorbance 570 nm; for Hemolytic activity HC90: concentration causing 90% hemolysis
Procedure: (§6) Fresh human blood was collected in EDTA tubes and centrifuged at 1,000 × g for 10 min at 4°C. The supernatant was discharged, and the pellet containing RBCs was washed three times with 1× PBS (137 mM NaCl, 2.7 mM KCl, 10 mM Na2HPO4, and 1.8 mM KH2PO4, pH 7.4) and resuspended in 1× PBS to obtain a 2.0% (v/v) suspension. Then, RBCs were added to centrifuge tubes containing two-fold serially diluted peptides to a final concentration ranging from 0.01 to 100 μM. The suspension was incubated for 24 h at 37°C with gentle stirring. After that, samples were centrifuged for 2 min at 1,000 × g. Supernatants were transferred to 96-well plates, and the hemoglobin released measured by absorbance at 570 nm in an Infinite F200 TECAN plate reader. 1× PBS with no peptides and Triton X-100 at 1 and 4% (v/v) were used as negative and positive controls, respectively. Hemolytic activity (%) was determined using the following equation:
(§7) (2) Hemolyticactivity(%)=AbsPT-AbsNC/AbsPC-AbsNC
(§8) where, AbsPT is the absorbance of treated samples, AbsNC is the absorbance from negative control, and AbsPC absorbance from positive control.
(§9) HC50 values were determined using the GraphPad Prism 7.0 software using a log(inhibitor) vs. normalized response. Experiments were performed on different days using independent blood donors.
(§10) (range from 0.01 to 100 μM). The percentage of hemolysis was determined by the absorbance of hemoglobin released into the supernatant. Melittin was included as a control peptide with hemolytic properties. The values were obtained from triplicates of three independent experiments. Error bars, S.D.

[5] = system: human RBCs
Procedure: as §6, §7, §8, §9, §10

[6] = labeled peptide, quantified by fluorescence emission
[7] = unlabeled peptide, quantified by HPLC (AUC, UV 220 nm)

C[C@@H](O)[C@H](NC(=O)CNC(=O)[C@H](CO)NC(=O)c1ccc2c(c1)C(=O)OC21c2ccc(O)cc2Oc2cc(O)ccc21)C(=O)N[C@@H](CCC(N)=O)C(=O)N[C@@H](CCC(=O)O)C(=O)N[C@@H](CCC(=O)O)C(=O)N[C@@H](Cc1ccc(O)cc1)C(N)=O [CF-PepNeg] (5FAM-SGTQEEY-NH2)
Translocation (%) [1, 6]: 56.01 ± 3.49% | CC50 at 24 h [2]: > 200 µM | Cytotoxicity HBEC-5i cells IC10 [3]: >200 µM

TF3-SGTQEEY-amide [TF3-PepNeg]
Translocation (%) [1, 6]: 53.69 ± 2.94% | IC50 [3]: > 200 µM | Cytotoxicity HBEC-5i cells IC10 [3]: >200 µM | Cytotoxicity HBEC-5i cells IC90 [3]: >200 µM | Hemolytic activity HC10 [4]: >200 µM | Hemolytic activity HC50 [4]: >200 µM | Hemolytic activity HC90 [4]: >200 µM

CC[C@H](C)[C@H](NC(=O)CNC(=O)[C@H](C)NC(=O)c1ccc2c(c1)C(=O)OC21c2ccc(O)cc2Oc2cc(O)ccc21)C(=O)N[C@@H](CC(C)C)C(=O)N[C@@H](CCCCN)C(=O)N[C@@H](CCCNC(=N)N)C(=O)N[C@@H](Cc1c[nH]c2ccccc12)C(N)=O [CF-PepH3] (5FAM-AGILKRW-NH2)
Translocation (%) [1, 6]: 57.09 ± 2.43% | CC50 at 24 h [2]: > 200 µM | Cytotoxicity HBEC-5i cells IC10 [3]: >200 µM | Hemolytic activity HC10 ([5]; pH 7.4): >200 µM | Hemolytic activity HC50 ([5]; pH 7.4): >200 µM | Hemolytic activity HC90 ([5]; pH 7.4): >200 µM

CCN(CC)c1ccc2c(-c3ccccc3C(=O)N[C@@H](CO)C(=O)NCC(=O)N[C@H](C(=O)N[C@@H](CCC(N)=O)C(=O)N[C@@H](CCC(=O)O)C(=O)N[C@@H](CCC(=O)O)C(=O)N[C@@H](Cc3ccc(O)cc3)C(N)=O)[C@@H](C)O)c3ccc(=[N+](CC)CC)cc-3oc2c1 [RhB-PepNeg] (RhodamineB-SGTQEEY-NH2)
Translocation (%) [1, 6]: 51.57 ± 2.43% | CC50 at 24 h [2]: > 200 µM | Cytotoxicity HBEC-5i cells IC10 [3]: >200 µM | Cytotoxicity HBEC-5i cells IC90 [3]: >200 µM | Hemolytic activity HC10 [4]: >200 µM | Hemolytic activity HC50 [4]: >200 µM | Hemolytic activity HC90 [4]: >200 µM

CC[C@H](C)[C@H](NC(=O)CNC(=O)[C@H](C)NC(=O)c1ccccc1-c1c2ccc(=[N+](CC)CC)cc-2oc2cc(N(CC)CC)ccc12)C(=O)N[C@@H](CC(C)C)C(=O)N[C@@H](CCCCN)C(=O)N[C@@H](CCCNC(=N)N)C(=O)N[C@@H](Cc1c[nH]c2ccccc12)C(N)=O [RhB-PepH3] (RhodamineB-AGILKRW-NH2)
Translocation (%) [1, 6]: 51.57 ± 4.81% | CC50 at 24 h [2]: > 200 µM | Cytotoxicity HBEC-5i cells IC10 [3]: >200 µM | Cytotoxicity HBEC-5i cells IC90 [3]: >200 µM | Hemolytic activity HC10 [5]: 9.208 ± 1.564 µM | Hemolytic activity HC50 [5]: 128.3 ± 6.596 µM | Hemolytic activity HC90 [5]: > 200 µM | Hemolytic activity HC10 ([5]; pH 7.4): 9.208 µM | Hemolytic activity HC50 ([5]; pH 7.4): 128.3 µM | Hemolytic activity HC90 ([5]; pH 7.4): >200 µM

CC[C@H](C)[C@H](NC(=O)CNC(=O)[C@H](C)NC(=O)CCCCCN1C(=CC=CC2=[N+](CC)c3ccccc3C2(C)C)C(C)(C)c2ccccc21)C(=O)N[C@@H](CC(C)C)C(=O)N[C@@H](CCCCN)C(=O)N[C@@H](CCCNC(=N)N)C(=O)N[C@@H](Cc1c[nH]c2ccccc12)C(N)=O [Q570-PepH3] (X1-AGILKRW-NH2)
Translocation (%) [1, 6]: 59.60 ± 2.64% | CC50 at 24 h [2]: > 200 µM | Cytotoxicity HBEC-5i cells IC10 [3]: >200 µM | Hemolytic activity HC10 [5]: > 200 µM | Hemolytic activity HC50 [5]: > 200 µM | Hemolytic activity HC90 [5]: > 200 µM | Hemolytic activity HC10 ([5]; pH 7.4): >200 µM | Hemolytic activity HC50 ([5]; pH 7.4): >200 µM | Hemolytic activity HC90 ([5]; pH 7.4): >200 µM

TF3-AGILKRW-amide [TF3-PepH3]
Translocation (%) [1, 6]: 56.74 ± 3.89% | IC50 [3]: > 200 µM | Cytotoxicity HBEC-5i cells IC10 [3]: 184.9 ± 6.57 µM | Cytotoxicity HBEC-5i cells IC90 [3]: >200 µM | Hemolytic activity HC10 [4]: >200 µM | Hemolytic activity HC50 [4]: >200 µM | Hemolytic activity HC90 [4]: >200 µM

CC[N+]1=C(C=CC=C2N(CCCCCC(=O)N[C@@H](CO)C(=O)NCC(=O)N[C@H](C(=O)N[C@@H](CCC(N)=O)C(=O)N[C@@H](CCC(=O)O)C(=O)N[C@@H](CCC(=O)O)C(=O)N[C@@H](Cc3ccc(O)cc3)C(N)=O)[C@@H](C)O)c3ccccc3C2(C)C)C(C)(C)c2ccccc21 [Q570-PepNeg] (X1-SGTQEEY-NH2)
Translocation (%) [1, 6]: 48.89 ± 3.05% | CC50 at 24 h [2]: > 200 µM | Cytotoxicity HBEC-5i cells IC10 [3]: >200 µM

SGTQEEY-NH2 [PepNeg]
Translocation (%) [1, 7]: 50.16 ± 3.13% | CC50 at 24 h [2]: > 200 µM | Cytotoxicity HBEC-5i cells IC10 [3]: >200 µM | Cytotoxicity HBEC-5i cells IC90 [3]: >200 µM | Hemolytic activity HC10 ([5]; pH 7.4): >200 µM | Hemolytic activity HC50 ([5]; pH 7.4): >200 µM | Hemolytic activity HC90 ([5]; pH 7.4): >200 µM

AGILKRW-NH2 [PepH3]
Translocation (%) [1, 7]: 55.15 ± 3.16% | CC50 at 24 h [2]: > 200 µM | Cytotoxicity HBEC-5i cells IC10 [3]: >200 µM | Cytotoxicity HBEC-5i cells IC90 [3]: >200 µM | Hemolytic activity HC10 [4]: >200 µM | Hemolytic activity HC50 [4]: >200 µM | Hemolytic activity HC90 [4]: >200 µM | Hemolysis of RBCs, in words ([4]; human RBCs, up to 100 μM, 24 h): non-hemolytic
